Measurements taken from patent US10287301B2 (Achillion Pharmaceuticals, Inc., priority 2015, dated 2019).
pIC50: −log10 of the molar value. Read-outs that look alike come from different tables or passages of the source.

Target: Human Factor D (Homo sapiens (Human), UniProt P00746)
Test: Human Factor D Assay
Assay type: biochemical
How it was run: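 First, compound at various concentrations is mixed with 80 nM (final) human serum Factor D in 50 mM Tris, 1M NaCl, pH 7.5 for 5 min at room temperature.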

[1] = Human Factor D 80 nM, substrate Z-L-Lys-SBzl, read-out: IC50

Sequence of Human Factor D (P00746 26-253): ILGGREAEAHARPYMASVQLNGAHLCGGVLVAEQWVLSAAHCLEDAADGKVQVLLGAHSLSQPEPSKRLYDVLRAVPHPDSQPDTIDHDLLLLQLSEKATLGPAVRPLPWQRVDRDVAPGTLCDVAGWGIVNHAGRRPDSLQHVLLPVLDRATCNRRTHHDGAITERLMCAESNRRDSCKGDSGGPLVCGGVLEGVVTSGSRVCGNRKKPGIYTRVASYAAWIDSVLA

| Compound | pIC50 [1] | pIC50 |
| --- | --- | --- |
| CC(=O)c1cn(CC(=O)N2C[C@H](F)C[C@H]2C(=O)NCc2cccc(Cl)c2F)c2ccc(-c3cnc(C)nc3)cc12 [Compound 135, (2S,4R)-1-(2-(3-acetyl-5-(2-methylpyrimidin-5-yl)-1H-indol-1-yl)acetyl)-N-(3-chloro-2-fluorobenzyl)-4-fluoropyrrolidine-2-carboxamide] | > 6.00 |  |
| COc1ncc(-c2ccc3c(c2)c(C(C)=O)cn3CC(=O)N2C[C@H](F)C[C@H]2C(=O)NCc2cccc(Cl)c2F)cn1 [Compound 136, (2S,4R)-1-(2-(3-acetyl-5-(2-methoxypyrimidin-5-yl)-1H-indol-1-yl)acetyl)-N-(3-chloro-2-fluorobenzyl)-4-fluoropyrrolidine-2-carboxamide] | > 6.00 |  |
| CC(=O)c1cn(CC(=O)N2C[C@H](F)C[C@H]2C(=O)Nc2cccc(Cl)n2)c2ccc(-c3cnc(C)nc3)cc12 [Compound 137, (2S,4R)-1-(2-(3-acetyl-5-(2-methylpyrimidin-5-yl)-1H-indol-1-yl)acetyl)-N-(6-chloropyridin-2-yl)-4-fluoropyrrolidine-2-carboxamide] | > 6.00 |  |
| CC(=O)Nc1ncc(-c2ccc3c(c2)c(C(C)=O)cn3CC(=O)N2C[C@H](F)C[C@H]2C(=O)Nc2cccc(-c3ccccc3Cl)c2F)cn1 [Compound 138, (2S,4R)-1-(2-(5-(2-acetamidopyrimidin-5-yl)-3-acetyl-1H-indol-1-yl)acetyl)-N-(2′-chloro-2-fluorobiphenyl-3-yl)-4-fluoropyrrolidine-2-carboxamide] | > 6.00 |  |
| NC(=O)c1nn(CC(=O)N2C[C@H](F)C[C@H]2C(=O)NCc2ccccn2)c2ccc(-c3ccnnc3)cc12 [Compound 139, 1-(2-((2S,4R)-4-fluoro-2-(pyridin-2-ylmethylcarbamoyl)pyrrolidin-1-yl)-2-oxoethyl)-5-(pyridazin-4-yl)-1H-indazole-3-carboxamide] |  | 5.00 to 6.00 |
| CC(=O)c1cn(CC(=O)N2C[C@H](F)C[C@H]2C(=O)NC2CCCN(c3cnn(C)c3)C2)c2ccc(-c3ccnnc3)cc12 (stereo partly drawn) [Compound 140, (2S,4R)-1-(2-(3-acetyl-5-(pyridazin-4-yl)-1H-indol-1-yl)acetyl)-4-fluoro-N-(1-(1-methyl-1H-pyrazol-4-yl)piperidin-3-yl)pyrrolidine-2-carboxamide] |  | 5.00 to 6.00 |
| Cn1cc(N2CCCC(NC(=O)[C@@H]3C[C@@H](F)CN3C(=O)Cn3nc(C(N)=O)c4cc(-c5ccnnc5)ccc43)C2)cn1 (stereo partly drawn) [Compound 141, 1-(2-((2S,4R)-4-fluoro-2-(1-(1-methyl-1H-pyrazol-4-yl)piperidin-3-ylcarbamoyl)pyrrolidin-1-yl)-2-oxoethyl)-5-(pyridazin-4-yl)-1H-indazole-3-carboxamide] | < 5.00 |  |
| CC(=O)c1cn(CC(=O)N2C[C@H](F)C[C@H]2C(=O)N[C@@H]2CCC[C@H]2O)c2ccc(-c3ccnnc3)cc12 [Compound 143, (2S,4R)-1-(2-(3-acetyl-5-(pyridazin-4-yl)-1H-indol-1-yl)acetyl)-4-fluoro-N-((1R,2R)-2-hydroxycyclopentyl) pyrrolidine-2-carboxamide] | < 5.00 |  |
| CC(=O)c1cn(CC(=O)N2C[C@H](F)C[C@H]2C(=O)Nc2cccc(O)n2)c2ccc(-c3ccnnc3)cc12 [Compound 144, (2S,4R)-1-(2-(3-acetyl-5-(pyridazin-4-yl)-1H-indol-1-yl)acetyl)-4-fluoro-N-(6-hydroxypyridin-2-yl)pyrrolidine-2-carboxamide] | < 5.00 |  |
| NC(=O)c1nn(CC(=O)N2C[C@H](F)C[C@H]2C(=O)N[C@@H]2CCC[C@H]2O)c2ccc(-c3ccnnc3)cc12 [Compound 145, 1-(2-((2S,4R)-4-fluoro-2-((1R,2R)-2-hydroxycyclopentylcarbamoyl)pyrrolidin-1-yl)-2-oxoethyl)-5-(pyridazin-4-yl)-1H-indazole-3-carboxamide] | < 5.00 |  |
